Source: patent publication US20180049984A1 (priority 2014, published 2018)

Tested on: Bp
Set-up: species or system BALB/c mice
Details: mouse, in vivo

For “gentamicin [free (i.e., unencapsulated) gentamicin]”, the “bacterial burdens in lungs, livers, and spleens” value was 10^3-10^5 CFUs/organ and the “time to death of all mice after infection” value was at most 4 days.
